Source: patent US6573060B1, “Methods and compositions for targeting DNA metabolic processes using aminoglycoside derivatives” (University of Virginia Patent Foundation, priority 1997, dated 2003)

Columns and labels:
[1] = test system: Entamoeba histolytica; assay: Entamoeba histolytica culture growth; assay type: cell-based; conditions: 72 h, read-out: concentration that completely kills the cells
Experimental: Entamoeba histolytica HMl-ISS strain was used for the experiment. The cells were grown in tissue culture medium TYI-S-33 containing trypticase, yeast extract, iron and serum along with 100 units/ml penicillin and […] streptomycin sulfate. 500,000 amoebae were incubated in 2 mls of media. The drugs were added to the required final concentration. The total number of amoebae was counted every 24 hours after the addition of drugs using light microscope. Growth was monitored over a period of 72 hours.

[2] = molecular target: T1, DNA-dependent ATPase A (Bos taurus, UniProt Q9TTA5); assay: Inhibition of ATP hydrolysis by DNA-dependent ATPase A (overexpressed 82 kDa ADAAD); assay type: biochemical, bovine; conditions: for inhibition of DNA-dependent ATPase A activity (in words): in vitro
T1 sequence (Q9TTA5 222-940): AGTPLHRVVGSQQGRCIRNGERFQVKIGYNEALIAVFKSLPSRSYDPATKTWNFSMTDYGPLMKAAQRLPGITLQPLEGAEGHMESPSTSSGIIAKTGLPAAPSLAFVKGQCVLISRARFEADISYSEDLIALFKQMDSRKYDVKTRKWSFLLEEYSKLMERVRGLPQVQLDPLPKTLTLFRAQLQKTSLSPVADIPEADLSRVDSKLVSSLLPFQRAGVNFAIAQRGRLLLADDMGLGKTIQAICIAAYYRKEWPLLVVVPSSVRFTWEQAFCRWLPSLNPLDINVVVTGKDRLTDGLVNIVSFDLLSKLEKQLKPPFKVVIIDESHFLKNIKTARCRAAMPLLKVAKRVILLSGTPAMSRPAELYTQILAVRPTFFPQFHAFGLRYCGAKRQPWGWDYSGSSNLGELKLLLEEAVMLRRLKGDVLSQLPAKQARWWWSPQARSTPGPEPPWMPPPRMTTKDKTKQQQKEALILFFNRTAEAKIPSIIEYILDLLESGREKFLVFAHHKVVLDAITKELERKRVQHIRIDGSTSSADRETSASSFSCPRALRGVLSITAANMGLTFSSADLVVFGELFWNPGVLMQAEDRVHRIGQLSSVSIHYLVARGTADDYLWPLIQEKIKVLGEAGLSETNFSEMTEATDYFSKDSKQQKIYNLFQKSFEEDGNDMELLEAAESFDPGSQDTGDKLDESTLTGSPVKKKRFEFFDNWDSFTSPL
Experimental: Enzyme (0.2 units (one unit is the amount of enzyme required to hydrolyze 1 μmole of adenosine triphosphate per min)) was mixed with 50 mM Tris-SO4, pH 7.5, 1 mM MgCl2, 5 mM β-mercaptoethanol, 0.5 mg/mL bovine serum albumin, 2 mM phosphoenol pyruvate, 0.03 mg/mL pyruvate kinase, 10 nM of stem-loop DNA, and 2 mM adenosine triphosphate in a total volume of 100 μL. The reaction was typically incubated at 37° C. for 10-60 minutes. At the end of the designated time, 225 μL of 10% sodium dodecyl sulfate and 350 μL of water were added to stop the reaction. Color development requires the addition of two reagents: 180 μL of reagent A (prepared by mixing equal volumes of 60 to 70% perchloric acid and 5% ammonium molybdate in water) and 45 μL of reagent B (0.2 g 1:2:4 aminonaphthol sulfonic acid, 12.0 g sodium metabisulfite, and 2.4 g sodium sulfite dissolved in 100 mL of water) was added. The reaction was incubated at room temperature for 10 minutes and the absorbance was read at 720 nm. The color development was time-dependent and therefore samples must be read at exactly 10 minutes.
Enzyme (0.2 units (one unit is the amount of enzyme required to hydrolyze 1 μmole of adenosine triphosphate per min)) was mixed with 25 mM Tris-acetate pH 7.5, 6 mM Mg(acetate)2, 60 mM KCl, 5 mM β-mercaptoethanol, 3 mM phosphoenol pyruvate, 10 units/mL pyruvate kinase, 10 units/mL lactate dehydrogenase 10 nM DNA, 2 mM adenosine triphosphate, and 0.1 mg/mL NADH in a final volume of 1 mL. The progress of the reaction at 37° C. was monitored at 340 nm using an HP8452 spectrophotometer.
Enzyme (0.2 U) was mixed with 50 mM Tris-SO4, pH 7.5, 1 mM MgCl2, 5 mM β-mercaptoethanol, 0.5 mg/mL bovine serum albumin, 2 mM phosphoenol pyruvate, 0.03 mg/mL pyruvate kinase, 10 nM of stem-loop DNA, and 2 mM adenosine triphosphate in a total volume of 50 μL. Three (3) μCi of [^32P]-γ-adenosine triphosphate was added to the reaction and typical incubation was for 60 minutes 37° C. EDTA (25 mM) was added to stop the reaction. 10 μL of the reaction was spotted on a poly(ethylenimine)-cellulose plate. The plate was developed using 0.9M LiCl and 7M urea as solvent system. The plate was allowed to dry and autoradiographed either using X-OMAT film or a phosphorimager. […]

[3] = test system: CHO non-K1 cells; assay: DNA replication assay in permeabilized CHO non-K1 cells; assay type: cell-based; conditions: phosphokanamycin 100 μM, phosphoneomycin 10 μM (FIG. 7)
Experimental: CHO non-K1 cells were used for the DNA replication assay. Cells were grown to density of 2×10^7 cells/plate in MEM medium supplemented with fetal calf serum. The cells were in log phase and unsynchronized. The plates were washed three times with cold MEM medium and cells were scraped off the plates into eppendorf tubes. The cells were centrifuged at 2000 rpm for 3 mm at 4° C. From each plate approximately 100 μl of cells were obtained. The cell pellet was resuspended in an equal volume of replication buffer [100 mM HEPES (pH 7.8), 0.2 mM dGTP, 0.2 mM DATP, 0.2 mM dTTP, 0.4 mM GTP, 0.4 mM CTP, 0.4 mM UTP, 8 mM ATP, 20 mM MgCl2, 0.2 mg/ml BSA, 2 mM DTT, 30% glycerol]. The cell suspension (20 μl) was aliquoted to individual tubes. Aminoglycosides and phosphoaminoglycosides were then added to the required final concentration. The cells were permeabilized by the addition of 0.5 μl of 20% NP-40 detergent. To monitor replication, 2 μl of α[^32 P] dCTP (3000-6000 Ci/mmole activity) was added. The cells were incubated at 37° C. for 10 min and the reaction was stopped by addition of 200 μl of stop buffer [50 mM TrisCl (pH 8.0), 10 mM EDTA, 400 mM NaCl, 1% SDS]. The cells were further incubated at 37° C. for 2 hours.
The DNA was sheared by passing 5-10 times through a 23 gauge needle. […] After drying, the radioactivity was measured using a liquid scintillation counter (Beckman).

With NC[C@H]1O[C@H](O[C@H]2[C@H](O)[C@@H](O[C@H]3O[C@H](CO)[C@@H](O)[C@H](N)[C@H]3O)[C@H](N)C[C@@H]2N)[C@H](O)[C@@H](OP(=O)(O)O)[C@@H]1O [phosphokanamycin, 3′-phosphokanamycin] the IC (100 (complete killing)) [1] was 200 µM, the Ki ([2]; Table 4, determined in the presence of effector) was 580 nM and the Ki ([2]; kinetic analysis of ATP hydrolysis, competitive with respect to DNA) was about 200 nM. The “inhibition of DNA-dependent ATPase A activity (in words)” value [2] was “inhibitor”, the “inhibition of DNA-dependent ATPase A activity (in words)” value ([2]; listed as 3′-phosphokanamycin) was “potent competitive (with respect to DNA) inhibitor” and the “decrease in amount of drug required for a given level of inhibition / potency relative to the parent aminoglycoside” value ([2]; phosphorylated derivative vs parent) was 1000 fold. For the same molecule, the “effect on DNA synthesis (in words)” value [3] was “disrupted DNA synthesis”.
